Assay results reported in PMC8213057, “Targeting ALK2: An Open Science Approach to Developing Therapeutics for the Treatment of Diffuse Intrinsic Pontine Glioma” (Journal of Medicinal Chemistry, 2020).
“And” between values parts separate entries of the source, which are not always exact repeats. Equal values may be shown once.

Tests used:
[1] = molecular target: CDK2/cyclin E2 (Homo sapiens, UniProt P24941); settings: 1 μM; Run 1, Run 2
[2] = molecular target: OSR1/OXSR1 (Homo sapiens, UniProt O95747); settings: 1 μM; Run 1, Run 2
[3] = molecular target: ROCK1 (Homo sapiens, UniProt Q13464); settings: 1 μM; Run 1, Run 2
[4] = system: TNIK
[5] = system: NLK
[6] = molecular target: T1, DCAMKL1 (Homo sapiens, UniProt O15075); assay: biochemical; settings: read-out: % enzyme activity, 1 μM; Run 1, Run 2
T1 sequence (O15075 1-740): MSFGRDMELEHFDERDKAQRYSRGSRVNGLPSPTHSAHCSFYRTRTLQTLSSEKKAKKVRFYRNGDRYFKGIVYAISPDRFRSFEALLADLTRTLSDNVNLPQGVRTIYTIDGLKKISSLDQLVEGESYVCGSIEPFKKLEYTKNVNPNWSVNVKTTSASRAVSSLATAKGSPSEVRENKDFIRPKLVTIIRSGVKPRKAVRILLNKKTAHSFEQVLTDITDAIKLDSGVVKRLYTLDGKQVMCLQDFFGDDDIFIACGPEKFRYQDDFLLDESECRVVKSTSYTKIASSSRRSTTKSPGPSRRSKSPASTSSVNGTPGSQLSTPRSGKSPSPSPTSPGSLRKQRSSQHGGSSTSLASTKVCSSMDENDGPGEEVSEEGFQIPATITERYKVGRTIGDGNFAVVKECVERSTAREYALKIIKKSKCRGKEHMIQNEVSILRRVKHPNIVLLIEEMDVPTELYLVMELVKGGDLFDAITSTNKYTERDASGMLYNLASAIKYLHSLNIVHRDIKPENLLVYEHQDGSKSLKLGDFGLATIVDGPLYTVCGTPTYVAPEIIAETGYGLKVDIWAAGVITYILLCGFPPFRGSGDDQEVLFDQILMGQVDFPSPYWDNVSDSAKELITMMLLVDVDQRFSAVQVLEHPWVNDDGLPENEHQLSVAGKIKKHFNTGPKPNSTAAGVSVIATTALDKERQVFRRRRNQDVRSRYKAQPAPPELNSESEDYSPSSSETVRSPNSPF

[7] = molecular target: IGF1R (Homo sapiens, UniProt P08069); settings: 1 μM; Run 1, Run 2
[8] = molecular target: MSSK1/STK23 (Homo sapiens, UniProt Q9UPE1); assay: biochemical; settings: read-out: % enzyme activity, 1 μM; Run 1, Run 2
[9] = molecular target: ABL2/ARG (Homo sapiens, UniProt P42684); assay: biochemical; settings: read-out: % enzyme activity, 1 μM; Run 1, Run 2
[10] = molecular target: CDK2/cyclin O (Homo sapiens, UniProt P24941); assay: biochemical; settings: read-out: % enzyme activity, 1 μM; Run 1, Run 2
[11] = molecular target: BTK (Homo sapiens, UniProt Q06187); settings: 1 μM; Run 1, Run 2
[12] = molecular target: T2, PKCzeta (Homo sapiens, UniProt Q05513); assay: biochemical; settings: read-out: % enzyme activity, 1 μM; Run 1, Run 2
T2 sequence (Q05513 1-592): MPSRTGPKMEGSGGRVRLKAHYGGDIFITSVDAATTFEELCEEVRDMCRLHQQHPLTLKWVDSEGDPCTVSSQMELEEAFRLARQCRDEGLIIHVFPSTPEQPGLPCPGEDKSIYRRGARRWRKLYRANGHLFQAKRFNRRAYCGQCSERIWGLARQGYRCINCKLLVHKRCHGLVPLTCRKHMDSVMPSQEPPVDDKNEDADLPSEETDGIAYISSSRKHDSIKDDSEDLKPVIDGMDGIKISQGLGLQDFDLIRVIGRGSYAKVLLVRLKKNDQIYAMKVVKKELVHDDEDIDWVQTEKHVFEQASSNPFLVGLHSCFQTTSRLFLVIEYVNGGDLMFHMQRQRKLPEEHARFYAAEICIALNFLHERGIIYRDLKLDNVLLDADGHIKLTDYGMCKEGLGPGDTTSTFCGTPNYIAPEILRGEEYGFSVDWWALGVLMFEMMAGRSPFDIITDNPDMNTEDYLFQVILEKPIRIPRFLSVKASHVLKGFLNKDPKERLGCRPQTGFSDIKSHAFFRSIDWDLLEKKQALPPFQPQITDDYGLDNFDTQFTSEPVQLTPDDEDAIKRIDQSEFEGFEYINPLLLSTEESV

[13] = molecular target: TTBK1 (Homo sapiens, UniProt Q5TCY1); assay: biochemical; settings: read-out: % enzyme activity, 1 μM; Run 1, Run 2
[14] = molecular target: T3, EPHA8 (Homo sapiens, UniProt P29322); assay: biochemical; settings: read-out: % enzyme activity, 1 μM; Run 1, Run 2
T3 sequence (P29322 28-1005): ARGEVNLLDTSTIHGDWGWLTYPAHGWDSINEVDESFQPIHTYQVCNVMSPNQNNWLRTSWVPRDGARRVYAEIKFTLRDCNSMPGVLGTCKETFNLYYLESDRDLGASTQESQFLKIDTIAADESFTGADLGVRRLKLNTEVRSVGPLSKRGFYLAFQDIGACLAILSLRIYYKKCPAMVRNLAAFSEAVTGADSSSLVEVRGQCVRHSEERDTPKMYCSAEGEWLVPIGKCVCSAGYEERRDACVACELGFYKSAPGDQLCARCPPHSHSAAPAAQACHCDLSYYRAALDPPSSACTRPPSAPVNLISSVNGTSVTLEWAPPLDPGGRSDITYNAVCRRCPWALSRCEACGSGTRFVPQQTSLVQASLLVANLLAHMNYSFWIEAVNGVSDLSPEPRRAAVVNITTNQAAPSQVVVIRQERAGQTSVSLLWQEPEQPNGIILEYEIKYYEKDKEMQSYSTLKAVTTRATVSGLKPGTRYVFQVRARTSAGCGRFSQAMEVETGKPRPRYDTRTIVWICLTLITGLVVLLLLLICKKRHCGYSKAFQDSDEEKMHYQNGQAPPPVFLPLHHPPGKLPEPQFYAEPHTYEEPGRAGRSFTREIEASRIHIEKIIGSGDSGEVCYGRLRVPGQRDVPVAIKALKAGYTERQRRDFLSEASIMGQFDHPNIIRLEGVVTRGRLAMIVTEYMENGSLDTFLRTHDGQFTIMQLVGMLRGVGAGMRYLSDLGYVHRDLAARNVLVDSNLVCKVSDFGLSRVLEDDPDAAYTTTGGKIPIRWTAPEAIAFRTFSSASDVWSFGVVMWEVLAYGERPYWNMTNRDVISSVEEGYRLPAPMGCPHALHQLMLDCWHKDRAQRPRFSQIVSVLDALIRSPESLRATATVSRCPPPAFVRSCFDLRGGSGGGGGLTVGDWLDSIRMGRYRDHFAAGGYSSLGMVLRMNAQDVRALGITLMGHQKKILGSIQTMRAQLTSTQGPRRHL

OSR1/OXSR1, sequence (O95747 whole entry): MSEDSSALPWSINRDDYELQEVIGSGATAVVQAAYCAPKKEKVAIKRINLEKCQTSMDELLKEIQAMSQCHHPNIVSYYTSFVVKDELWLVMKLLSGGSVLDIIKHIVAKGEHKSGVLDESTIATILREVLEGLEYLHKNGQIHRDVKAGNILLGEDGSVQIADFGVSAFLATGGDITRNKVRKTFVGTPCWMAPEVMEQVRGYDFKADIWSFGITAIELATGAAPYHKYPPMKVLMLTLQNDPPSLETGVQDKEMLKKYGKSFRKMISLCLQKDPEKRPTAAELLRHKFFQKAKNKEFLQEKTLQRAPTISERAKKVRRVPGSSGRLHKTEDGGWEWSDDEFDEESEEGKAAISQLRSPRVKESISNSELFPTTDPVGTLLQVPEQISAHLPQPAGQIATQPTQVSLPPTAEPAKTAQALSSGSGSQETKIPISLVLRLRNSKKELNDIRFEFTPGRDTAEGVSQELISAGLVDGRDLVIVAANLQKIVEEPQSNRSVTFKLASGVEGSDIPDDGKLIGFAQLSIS
MSSK1/STK23, sequence (Q9UPE1 whole entry): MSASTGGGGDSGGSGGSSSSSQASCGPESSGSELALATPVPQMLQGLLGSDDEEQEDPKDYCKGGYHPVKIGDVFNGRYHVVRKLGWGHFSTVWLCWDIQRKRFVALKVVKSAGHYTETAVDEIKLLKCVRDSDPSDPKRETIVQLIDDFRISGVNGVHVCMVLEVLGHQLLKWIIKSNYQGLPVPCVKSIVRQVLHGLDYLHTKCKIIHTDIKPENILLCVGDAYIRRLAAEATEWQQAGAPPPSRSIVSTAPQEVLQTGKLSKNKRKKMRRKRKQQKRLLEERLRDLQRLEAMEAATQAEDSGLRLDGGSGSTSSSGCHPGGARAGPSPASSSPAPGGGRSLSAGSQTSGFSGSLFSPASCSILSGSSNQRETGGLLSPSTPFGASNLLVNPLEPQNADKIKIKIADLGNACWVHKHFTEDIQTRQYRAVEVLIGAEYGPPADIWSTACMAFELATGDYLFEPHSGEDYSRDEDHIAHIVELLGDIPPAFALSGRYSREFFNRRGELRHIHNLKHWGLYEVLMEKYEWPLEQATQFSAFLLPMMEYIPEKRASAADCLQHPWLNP
TTBK1, sequence (Q5TCY1 whole entry): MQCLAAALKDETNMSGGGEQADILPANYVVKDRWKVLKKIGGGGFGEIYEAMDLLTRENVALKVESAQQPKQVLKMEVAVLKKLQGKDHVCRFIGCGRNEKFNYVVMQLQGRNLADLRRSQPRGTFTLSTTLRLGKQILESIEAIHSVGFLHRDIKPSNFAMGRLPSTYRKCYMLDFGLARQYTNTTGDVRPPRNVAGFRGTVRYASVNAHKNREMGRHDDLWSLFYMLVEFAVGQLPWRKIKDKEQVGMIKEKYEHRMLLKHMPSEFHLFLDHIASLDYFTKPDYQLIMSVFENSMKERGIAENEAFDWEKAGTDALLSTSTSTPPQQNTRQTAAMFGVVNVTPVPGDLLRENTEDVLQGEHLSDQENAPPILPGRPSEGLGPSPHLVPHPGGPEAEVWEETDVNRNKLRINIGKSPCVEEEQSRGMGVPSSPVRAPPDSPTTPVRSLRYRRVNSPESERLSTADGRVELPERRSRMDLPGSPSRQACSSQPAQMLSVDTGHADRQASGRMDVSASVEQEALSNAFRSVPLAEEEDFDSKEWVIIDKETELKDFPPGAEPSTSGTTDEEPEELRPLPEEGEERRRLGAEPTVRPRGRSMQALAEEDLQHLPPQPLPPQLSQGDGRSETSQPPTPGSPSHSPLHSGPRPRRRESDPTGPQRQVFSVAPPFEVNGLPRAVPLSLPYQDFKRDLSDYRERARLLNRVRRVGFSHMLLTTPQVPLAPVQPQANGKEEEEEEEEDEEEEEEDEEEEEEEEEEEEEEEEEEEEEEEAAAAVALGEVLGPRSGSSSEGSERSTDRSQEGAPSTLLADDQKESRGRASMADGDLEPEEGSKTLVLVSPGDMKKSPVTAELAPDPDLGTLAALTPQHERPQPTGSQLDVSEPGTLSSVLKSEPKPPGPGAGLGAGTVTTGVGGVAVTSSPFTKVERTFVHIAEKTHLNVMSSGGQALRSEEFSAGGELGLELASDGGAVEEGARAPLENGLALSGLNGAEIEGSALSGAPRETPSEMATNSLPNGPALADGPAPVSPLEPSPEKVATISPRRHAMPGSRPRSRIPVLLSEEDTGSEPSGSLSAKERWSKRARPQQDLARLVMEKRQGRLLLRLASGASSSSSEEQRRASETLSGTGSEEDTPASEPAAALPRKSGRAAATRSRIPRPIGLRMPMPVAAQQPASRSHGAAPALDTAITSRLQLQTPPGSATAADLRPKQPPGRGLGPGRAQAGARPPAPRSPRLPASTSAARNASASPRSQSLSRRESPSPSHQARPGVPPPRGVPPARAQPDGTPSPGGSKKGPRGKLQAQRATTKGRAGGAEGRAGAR
BTK, sequence (Q06187 whole entry): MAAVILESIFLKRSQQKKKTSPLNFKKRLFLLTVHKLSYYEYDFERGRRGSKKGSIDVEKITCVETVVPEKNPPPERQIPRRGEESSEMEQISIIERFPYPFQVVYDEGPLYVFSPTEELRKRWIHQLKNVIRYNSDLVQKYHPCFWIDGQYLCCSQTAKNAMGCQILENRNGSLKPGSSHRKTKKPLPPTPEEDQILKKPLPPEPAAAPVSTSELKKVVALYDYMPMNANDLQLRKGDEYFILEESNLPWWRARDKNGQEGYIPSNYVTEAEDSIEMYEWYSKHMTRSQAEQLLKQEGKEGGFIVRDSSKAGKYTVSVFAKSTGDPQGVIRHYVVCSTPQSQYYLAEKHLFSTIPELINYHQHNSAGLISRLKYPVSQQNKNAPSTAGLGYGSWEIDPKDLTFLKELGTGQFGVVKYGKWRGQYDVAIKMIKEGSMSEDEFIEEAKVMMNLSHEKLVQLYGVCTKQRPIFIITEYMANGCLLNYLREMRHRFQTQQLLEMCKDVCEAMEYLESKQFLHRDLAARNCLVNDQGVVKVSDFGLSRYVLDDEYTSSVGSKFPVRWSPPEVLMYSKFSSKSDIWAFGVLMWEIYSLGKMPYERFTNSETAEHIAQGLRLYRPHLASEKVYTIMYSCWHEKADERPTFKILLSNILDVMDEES
IGF1R, sequence (P08069 31-1367): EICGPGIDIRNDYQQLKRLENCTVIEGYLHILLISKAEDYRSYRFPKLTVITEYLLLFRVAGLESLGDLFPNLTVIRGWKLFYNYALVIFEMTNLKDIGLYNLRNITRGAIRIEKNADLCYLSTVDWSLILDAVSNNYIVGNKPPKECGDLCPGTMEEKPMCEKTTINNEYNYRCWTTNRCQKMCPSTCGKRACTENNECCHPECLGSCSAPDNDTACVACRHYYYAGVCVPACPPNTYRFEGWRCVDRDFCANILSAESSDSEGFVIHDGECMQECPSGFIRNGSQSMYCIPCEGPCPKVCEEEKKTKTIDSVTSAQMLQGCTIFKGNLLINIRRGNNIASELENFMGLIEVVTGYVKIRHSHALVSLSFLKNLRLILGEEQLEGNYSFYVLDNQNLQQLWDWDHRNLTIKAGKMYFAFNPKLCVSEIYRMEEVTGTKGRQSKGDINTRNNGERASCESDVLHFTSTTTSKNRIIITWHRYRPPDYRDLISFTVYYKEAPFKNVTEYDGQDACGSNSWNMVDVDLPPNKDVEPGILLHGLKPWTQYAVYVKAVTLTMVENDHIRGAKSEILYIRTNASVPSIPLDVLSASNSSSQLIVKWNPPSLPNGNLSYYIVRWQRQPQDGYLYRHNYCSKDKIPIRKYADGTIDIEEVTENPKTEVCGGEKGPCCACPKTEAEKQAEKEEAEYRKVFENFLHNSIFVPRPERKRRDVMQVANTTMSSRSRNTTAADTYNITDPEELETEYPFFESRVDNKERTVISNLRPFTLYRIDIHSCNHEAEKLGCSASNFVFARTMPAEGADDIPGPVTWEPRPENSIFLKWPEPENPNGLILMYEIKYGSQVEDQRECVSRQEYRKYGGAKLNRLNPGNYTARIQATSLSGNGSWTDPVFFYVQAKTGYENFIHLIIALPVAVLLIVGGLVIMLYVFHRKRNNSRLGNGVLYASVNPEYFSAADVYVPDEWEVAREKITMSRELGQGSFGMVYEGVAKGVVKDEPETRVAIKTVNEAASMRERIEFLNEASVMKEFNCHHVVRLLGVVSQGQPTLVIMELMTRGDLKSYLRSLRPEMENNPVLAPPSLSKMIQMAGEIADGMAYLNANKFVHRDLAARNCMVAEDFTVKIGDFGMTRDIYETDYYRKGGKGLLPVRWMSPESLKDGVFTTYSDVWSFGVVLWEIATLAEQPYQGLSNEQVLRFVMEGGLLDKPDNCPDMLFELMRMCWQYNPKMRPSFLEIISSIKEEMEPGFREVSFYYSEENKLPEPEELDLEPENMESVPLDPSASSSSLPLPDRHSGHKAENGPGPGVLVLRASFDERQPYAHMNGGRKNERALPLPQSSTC

Compound	% enzyme activity [1] [%]	% enzyme activity [2] [%]	% enzyme activity [3] [%]	% enzyme activity at 1 μM [4]	% enzyme activity at 1 μM [5]	remaining activity at 1 µM [6] [%]	% enzyme activity [7] [%]	remaining activity at 1 µM [8] [%]	remaining activity at 1 µM [9] [%]	remaining activity at 1 µM [10] [%]	% enzyme activity [11] [%]	remaining activity at 1 µM [12] [%]	remaining activity at 1 µM [13] [%]	remaining activity at 1 µM [14] [%]
COc1cc(-c2cncc(-c3ccc(N4CCN(C)CC4)cc3)c2C)cc(F)c1C(N)=O [Compound 26a, 2-Fluoro-6-methoxy-4-(4-methyl-5-(4-(4-methylpiperazin-1-yl)phenyl)pyridin-3-yl)benzamide]	104.96	93.34	91.98	-0.77% and -2.62%	22% and 20.8%	81.8	98.31	99.3	97.3	95.1	94.35	91.2	97.3	95.3
COc1cc(-c2cncc(-c3ccc(N4C[C@@H](C)N(C)[C@@H](C)C4)cc3)c2C)cc(F)c1C(N)=O [Compound 26c, 2-Fluoro-6-methoxy-4-(4-methyl-5-(4-((3R,5S)-3,4,5-trimethylpiperazin-1-yl)phenyl)pyridin-3-yl)benzamide]	93.14	94.75	92.61	4.85% and 3.92%	50.4% and 47.7%	89.1	94.80	99.8	97.1	92.7	94.07	92.5	99.4	97.5
